Data taken from ChEMBL document CHEMBL3991601, “The target landscape of clinical kinase drugs” (Science, 2017).
pKd: −log10 of the molar value. Activity calls are given as the source filed them.

How the values were obtained:
[1] = target: MAP kinase-activated protein kinase 3 (Homo sapiens, UniProt Q16644)
[2] = target: Uncharacterized aarF domain-containing protein kinase 5 (Homo sapiens, UniProt Q3MIX3)
[3] = target: Cyclin-dependent kinase 17 (Homo sapiens, UniProt Q00537)
[4] = target: T1, MAP/microtubule affinity-regulating kinase 4 (Homo sapiens, UniProt Q96L34)
T1 sequence (Q96L34 whole entry): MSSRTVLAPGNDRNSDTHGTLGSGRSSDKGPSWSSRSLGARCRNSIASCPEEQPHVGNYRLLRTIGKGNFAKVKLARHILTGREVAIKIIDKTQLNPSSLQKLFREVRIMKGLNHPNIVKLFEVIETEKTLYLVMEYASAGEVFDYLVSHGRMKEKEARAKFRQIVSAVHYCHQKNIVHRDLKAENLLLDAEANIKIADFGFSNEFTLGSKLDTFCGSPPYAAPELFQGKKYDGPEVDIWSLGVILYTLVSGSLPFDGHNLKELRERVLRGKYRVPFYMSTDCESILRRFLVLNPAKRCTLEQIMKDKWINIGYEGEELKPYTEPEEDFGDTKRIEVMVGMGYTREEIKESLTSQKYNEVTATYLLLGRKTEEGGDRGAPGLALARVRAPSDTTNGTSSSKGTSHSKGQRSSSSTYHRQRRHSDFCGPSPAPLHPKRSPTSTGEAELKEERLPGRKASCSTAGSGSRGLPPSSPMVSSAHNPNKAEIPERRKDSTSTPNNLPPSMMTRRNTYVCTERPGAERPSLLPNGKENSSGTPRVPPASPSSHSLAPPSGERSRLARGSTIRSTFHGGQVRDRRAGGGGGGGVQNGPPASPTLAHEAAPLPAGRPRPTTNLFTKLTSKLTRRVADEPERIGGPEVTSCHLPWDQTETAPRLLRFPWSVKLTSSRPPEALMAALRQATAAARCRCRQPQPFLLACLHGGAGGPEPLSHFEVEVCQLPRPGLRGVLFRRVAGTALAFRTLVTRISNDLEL

[5] = target: Membrane-associated progesterone receptor component 1 (Homo sapiens, UniProt O00264)
[6] = target: PAS domain-containing serine/threonine-protein kinase (Homo sapiens, UniProt Q96RG2)
[7] = target: Dual specificity protein kinase CLK4 (Homo sapiens, UniProt Q9HAZ1)
[8] = target: Serine/threonine-protein kinase ATR (Homo sapiens, UniProt Q13535)
[9] = target: T2, Dual specificity protein kinase TTK (Homo sapiens, UniProt P33981)
T2 sequence (P33981 whole entry): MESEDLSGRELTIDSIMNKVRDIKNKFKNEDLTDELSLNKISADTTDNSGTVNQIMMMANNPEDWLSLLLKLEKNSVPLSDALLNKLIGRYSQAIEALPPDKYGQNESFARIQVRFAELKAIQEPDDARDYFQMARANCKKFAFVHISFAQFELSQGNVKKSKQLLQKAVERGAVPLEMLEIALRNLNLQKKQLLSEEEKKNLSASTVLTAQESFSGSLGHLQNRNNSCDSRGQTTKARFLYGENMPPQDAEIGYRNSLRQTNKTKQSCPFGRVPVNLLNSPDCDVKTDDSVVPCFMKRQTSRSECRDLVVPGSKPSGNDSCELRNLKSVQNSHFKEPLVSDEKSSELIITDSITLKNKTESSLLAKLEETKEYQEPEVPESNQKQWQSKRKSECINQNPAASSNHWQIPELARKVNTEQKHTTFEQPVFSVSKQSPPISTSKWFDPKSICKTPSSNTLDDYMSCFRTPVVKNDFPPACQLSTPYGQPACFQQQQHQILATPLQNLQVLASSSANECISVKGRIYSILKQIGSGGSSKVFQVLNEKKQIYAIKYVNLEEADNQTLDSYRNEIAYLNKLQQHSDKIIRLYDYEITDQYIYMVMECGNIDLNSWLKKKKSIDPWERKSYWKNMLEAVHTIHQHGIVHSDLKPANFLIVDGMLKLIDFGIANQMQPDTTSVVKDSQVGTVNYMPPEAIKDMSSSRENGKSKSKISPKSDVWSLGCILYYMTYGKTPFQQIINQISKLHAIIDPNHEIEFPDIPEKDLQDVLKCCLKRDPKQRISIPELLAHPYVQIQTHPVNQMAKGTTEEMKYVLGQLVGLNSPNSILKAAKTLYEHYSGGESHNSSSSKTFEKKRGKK
Note: in the data inactive means no Kd found up to 30 µM.

Sequence of Cyclin-dependent kinase 17 (Q00537 whole entry): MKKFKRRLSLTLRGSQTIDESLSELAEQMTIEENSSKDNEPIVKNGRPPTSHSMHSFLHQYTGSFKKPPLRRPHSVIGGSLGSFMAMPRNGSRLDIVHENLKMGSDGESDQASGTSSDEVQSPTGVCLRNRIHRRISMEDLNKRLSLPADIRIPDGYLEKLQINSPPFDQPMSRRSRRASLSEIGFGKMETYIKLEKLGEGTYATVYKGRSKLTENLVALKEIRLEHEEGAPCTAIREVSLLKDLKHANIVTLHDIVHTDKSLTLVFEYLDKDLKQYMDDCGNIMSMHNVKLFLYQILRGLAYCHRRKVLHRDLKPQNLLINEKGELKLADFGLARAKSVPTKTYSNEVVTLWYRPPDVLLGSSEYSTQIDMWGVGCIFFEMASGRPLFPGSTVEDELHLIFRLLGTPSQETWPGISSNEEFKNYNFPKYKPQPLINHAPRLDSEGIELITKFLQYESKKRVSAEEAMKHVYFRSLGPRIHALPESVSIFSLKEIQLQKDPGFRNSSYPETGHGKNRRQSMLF
Sequence of Uncharacterized aarF domain-containing protein kinase 5 (Q3MIX3 whole entry, the tested form may be a part): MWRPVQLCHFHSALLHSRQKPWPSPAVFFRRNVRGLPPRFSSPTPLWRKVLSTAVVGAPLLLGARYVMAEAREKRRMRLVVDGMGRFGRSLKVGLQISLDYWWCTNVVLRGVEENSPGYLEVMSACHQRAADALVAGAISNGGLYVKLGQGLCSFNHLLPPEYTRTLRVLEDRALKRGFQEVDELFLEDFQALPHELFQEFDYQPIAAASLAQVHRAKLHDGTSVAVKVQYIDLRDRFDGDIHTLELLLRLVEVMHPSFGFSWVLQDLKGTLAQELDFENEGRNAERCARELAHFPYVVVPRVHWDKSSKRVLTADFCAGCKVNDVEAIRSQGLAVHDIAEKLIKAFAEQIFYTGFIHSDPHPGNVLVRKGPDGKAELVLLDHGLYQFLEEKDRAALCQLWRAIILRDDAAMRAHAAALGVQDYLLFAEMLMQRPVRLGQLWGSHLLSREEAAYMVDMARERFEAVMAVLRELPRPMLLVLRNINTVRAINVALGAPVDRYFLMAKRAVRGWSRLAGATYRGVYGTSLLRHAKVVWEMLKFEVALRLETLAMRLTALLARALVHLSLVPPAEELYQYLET
Sequence of MAP kinase-activated protein kinase 3 (Q16644 whole entry, the tested form may be a part): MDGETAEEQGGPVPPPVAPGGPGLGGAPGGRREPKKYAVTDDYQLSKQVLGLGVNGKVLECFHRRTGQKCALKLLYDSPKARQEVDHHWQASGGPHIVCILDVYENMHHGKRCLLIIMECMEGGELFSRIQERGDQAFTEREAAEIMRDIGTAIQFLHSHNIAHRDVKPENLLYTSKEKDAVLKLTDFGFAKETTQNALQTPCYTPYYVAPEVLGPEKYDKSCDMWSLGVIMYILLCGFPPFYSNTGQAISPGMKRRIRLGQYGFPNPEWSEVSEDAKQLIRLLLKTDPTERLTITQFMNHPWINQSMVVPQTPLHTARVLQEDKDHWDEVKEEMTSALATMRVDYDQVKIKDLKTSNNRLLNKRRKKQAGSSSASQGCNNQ
Sequence of Dual specificity protein kinase CLK4 (Q9HAZ1 whole entry): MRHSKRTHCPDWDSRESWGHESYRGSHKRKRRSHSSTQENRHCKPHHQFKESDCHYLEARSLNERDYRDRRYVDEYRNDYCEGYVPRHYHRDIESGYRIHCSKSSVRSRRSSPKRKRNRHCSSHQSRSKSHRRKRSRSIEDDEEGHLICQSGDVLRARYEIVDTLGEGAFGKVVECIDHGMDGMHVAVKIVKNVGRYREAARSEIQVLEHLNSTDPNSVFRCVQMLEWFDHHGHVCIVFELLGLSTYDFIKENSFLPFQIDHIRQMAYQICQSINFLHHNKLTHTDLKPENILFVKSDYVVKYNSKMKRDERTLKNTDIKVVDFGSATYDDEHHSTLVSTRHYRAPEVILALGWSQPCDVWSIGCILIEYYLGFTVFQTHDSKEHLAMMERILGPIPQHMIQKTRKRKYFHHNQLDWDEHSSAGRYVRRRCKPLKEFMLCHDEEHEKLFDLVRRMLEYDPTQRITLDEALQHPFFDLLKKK
Sequence of Membrane-associated progesterone receptor component 1 (O00264 whole entry, the tested form may be a part): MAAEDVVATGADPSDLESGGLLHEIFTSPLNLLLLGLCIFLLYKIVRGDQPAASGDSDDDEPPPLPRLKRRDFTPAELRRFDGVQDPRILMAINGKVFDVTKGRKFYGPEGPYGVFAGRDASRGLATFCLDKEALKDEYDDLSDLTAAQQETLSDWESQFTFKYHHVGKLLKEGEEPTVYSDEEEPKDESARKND
Sequence of Serine/threonine-protein kinase ATR (Q13535 whole entry): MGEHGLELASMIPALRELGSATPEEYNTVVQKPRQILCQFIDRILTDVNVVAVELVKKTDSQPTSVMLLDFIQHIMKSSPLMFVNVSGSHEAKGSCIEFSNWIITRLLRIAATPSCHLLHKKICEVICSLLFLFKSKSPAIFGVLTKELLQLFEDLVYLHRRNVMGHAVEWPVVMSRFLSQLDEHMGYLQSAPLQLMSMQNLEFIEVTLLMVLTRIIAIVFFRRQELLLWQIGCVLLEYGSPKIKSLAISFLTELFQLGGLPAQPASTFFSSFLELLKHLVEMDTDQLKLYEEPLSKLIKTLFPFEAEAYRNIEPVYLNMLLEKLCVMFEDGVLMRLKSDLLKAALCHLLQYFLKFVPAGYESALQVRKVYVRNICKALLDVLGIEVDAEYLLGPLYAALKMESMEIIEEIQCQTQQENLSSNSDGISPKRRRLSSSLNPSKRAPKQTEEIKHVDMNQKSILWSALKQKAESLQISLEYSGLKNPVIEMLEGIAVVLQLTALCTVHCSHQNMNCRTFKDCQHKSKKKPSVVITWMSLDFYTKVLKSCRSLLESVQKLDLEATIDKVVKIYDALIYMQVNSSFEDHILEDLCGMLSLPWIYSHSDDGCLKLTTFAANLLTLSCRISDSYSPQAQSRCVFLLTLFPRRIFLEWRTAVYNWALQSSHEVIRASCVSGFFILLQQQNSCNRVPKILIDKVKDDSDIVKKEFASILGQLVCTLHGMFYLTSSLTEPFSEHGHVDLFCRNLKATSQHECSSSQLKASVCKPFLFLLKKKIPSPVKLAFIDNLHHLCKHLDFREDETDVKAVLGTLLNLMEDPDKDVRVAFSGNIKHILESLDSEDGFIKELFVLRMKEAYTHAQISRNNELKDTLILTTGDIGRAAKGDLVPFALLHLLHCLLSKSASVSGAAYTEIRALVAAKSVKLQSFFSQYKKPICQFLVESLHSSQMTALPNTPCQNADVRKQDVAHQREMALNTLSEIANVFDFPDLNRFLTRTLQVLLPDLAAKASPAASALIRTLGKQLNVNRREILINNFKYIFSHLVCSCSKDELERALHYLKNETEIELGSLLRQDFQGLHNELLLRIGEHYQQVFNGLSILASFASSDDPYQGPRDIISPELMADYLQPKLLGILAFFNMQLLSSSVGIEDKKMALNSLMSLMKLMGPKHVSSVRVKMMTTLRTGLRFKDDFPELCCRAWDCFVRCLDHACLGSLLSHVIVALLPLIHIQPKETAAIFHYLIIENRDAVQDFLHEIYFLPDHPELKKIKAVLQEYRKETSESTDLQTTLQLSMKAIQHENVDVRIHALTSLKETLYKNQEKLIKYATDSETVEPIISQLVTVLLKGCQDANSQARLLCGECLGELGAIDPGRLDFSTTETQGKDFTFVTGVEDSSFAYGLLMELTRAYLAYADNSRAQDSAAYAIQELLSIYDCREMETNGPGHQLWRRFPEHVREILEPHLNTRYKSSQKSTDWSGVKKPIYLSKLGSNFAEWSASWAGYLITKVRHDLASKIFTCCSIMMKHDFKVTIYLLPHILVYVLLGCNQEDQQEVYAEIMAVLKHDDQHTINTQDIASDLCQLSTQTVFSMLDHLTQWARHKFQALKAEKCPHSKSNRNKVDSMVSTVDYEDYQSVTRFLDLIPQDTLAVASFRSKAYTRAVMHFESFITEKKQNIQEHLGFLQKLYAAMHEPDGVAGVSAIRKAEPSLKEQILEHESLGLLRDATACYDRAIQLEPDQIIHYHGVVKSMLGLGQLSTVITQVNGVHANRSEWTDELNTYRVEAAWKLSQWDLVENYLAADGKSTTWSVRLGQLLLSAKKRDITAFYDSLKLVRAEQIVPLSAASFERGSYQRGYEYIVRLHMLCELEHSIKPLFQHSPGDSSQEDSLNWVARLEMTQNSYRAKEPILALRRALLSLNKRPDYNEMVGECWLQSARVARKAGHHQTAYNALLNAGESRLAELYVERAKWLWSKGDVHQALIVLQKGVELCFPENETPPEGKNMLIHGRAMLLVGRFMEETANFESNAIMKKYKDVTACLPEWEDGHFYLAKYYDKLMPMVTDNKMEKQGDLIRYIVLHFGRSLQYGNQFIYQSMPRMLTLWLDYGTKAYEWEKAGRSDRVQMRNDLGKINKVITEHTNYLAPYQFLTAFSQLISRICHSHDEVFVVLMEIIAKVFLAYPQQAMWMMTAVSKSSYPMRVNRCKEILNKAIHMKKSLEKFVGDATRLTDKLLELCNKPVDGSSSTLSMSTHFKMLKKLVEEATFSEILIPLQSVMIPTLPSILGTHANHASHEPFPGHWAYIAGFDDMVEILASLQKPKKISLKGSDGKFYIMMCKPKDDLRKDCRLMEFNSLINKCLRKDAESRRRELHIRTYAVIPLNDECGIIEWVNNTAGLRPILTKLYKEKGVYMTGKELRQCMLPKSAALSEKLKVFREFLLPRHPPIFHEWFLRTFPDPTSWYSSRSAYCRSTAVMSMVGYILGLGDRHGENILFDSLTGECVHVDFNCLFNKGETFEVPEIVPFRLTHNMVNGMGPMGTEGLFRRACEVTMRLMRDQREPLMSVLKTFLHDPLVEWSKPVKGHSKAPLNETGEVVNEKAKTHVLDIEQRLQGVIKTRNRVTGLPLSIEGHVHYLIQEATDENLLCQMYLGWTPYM

Row | Structure (SMILES) | Kd [1] | Kd [2] | Kd [3] | Kd [4] | Kd [5] | Kd [6] | Kd [7] | Kd [8] | Kd [9] | pKd [3]
1 | COc1cc2ncnc3c2cc1OCCCCCN(C)Cc1ccc(Br)cc1N3 [JNJ-26483327] | > 30 µM (inactive) | > 30 µM (inactive) | > 30 µM (inactive) | > 30 µM (inactive) | – | – | – | – | – | –
2 | CN(c1ncccc1CNc1nc(Nc2ccc3c(c2)CC(=O)N3)ncc1C(F)(F)F)S(C)(=O)=O [PF-00562271] | – | > 30 µM (inactive) | 0.089 µM (active) | – | > 30 µM (inactive) | > 30 µM (inactive) | > 30 µM (inactive) | – | – | –
3 | CNC(=O)c1cc(COc2nnc(Nc3ccc(Cl)cc3)c3ccoc23)ccn1 [TELATINIB] | – | – | > 30 µM (inactive) | > 30 µM (inactive) | > 30 µM (inactive) | > 30 µM (inactive) | – | > 30 µM (inactive) | > 30 µM (inactive) | –
4 | Cn1c(=O)c(F)c(Nc2ccc(I)cc2F)c2c(=O)n(C[C@@H](O)CO)cnc21 [TAK-733] | > 30 µM (inactive) | > 30 µM (inactive) | > 30 µM (inactive) | > 30 µM (inactive) | > 30 µM (inactive) | > 30 µM (inactive) | – | – | > 30 µM (inactive) | –
5 | CC[C@@](C)(Nc1ccnc(-c2c[nH]c3ncccc23)n1)C(=O)NCC(F)(F)F [DECERNOTINIB] | – | – | 0.139 µM (active) | – | > 30 µM (inactive) | > 30 µM (inactive) | – | – | – | –
6 | O=C(NOC[C@H](O)CO)c1ccc(F)c(F)c1Nc1ccc(I)cc1F [MIRDAMETINIB] | > 30 µM (inactive) | > 30 µM (inactive) | > 30 µM (inactive) | > 30 µM (inactive) | > 30 µM (inactive) | > 30 µM (inactive) | > 30 µM (inactive) | – | > 30 µM (inactive) | –
7 | N#CCNC(=O)c1ccc(-c2ccnc(Nc3ccc(N4CCOCC4)cc3)n2)cc1 [MOMELOTINIB] | – | – | – | – | > 30 µM (inactive) | > 30 µM (inactive) | – | – | > 30 µM (inactive) | 5.86
8 | CC(C)(O)CC(=O)NCCn1ccc2ncnc(Nc3ccc(Oc4cccc(C(F)(F)F)c4)c(Cl)c3)c21 [TAK-285] | – | – | > 30 µM (inactive) | > 30 µM (inactive) | > 30 µM (inactive) | – | – | – | – | –
9 | Cc1cc(C(=O)Nc2cc(Oc3ccc4nc(NC(=O)C5CC5)cn4n3)ccc2C)n(C)n1 [TAK-593] | – | > 30 µM (inactive) | – | > 30 µM (inactive) | – | – | > 30 µM (inactive) | – | – | –
10 | NC[C@@](O)(c1ccc(Cl)cc1)c1ccc(-c2cn[nH]c2)cc1 [AT-13148] | – | – | – | – | > 30 µM (inactive) | – | – | – | – | –
11 | Cc1c(NC(=O)OC[C@@H]2COCCN2)cn2ncnc(Nc3ccc4c(cnn4Cc4cccc(F)c4)c3)c12 [AC-480] | – | – | – | > 30 µM (inactive) | – | > 30 µM (inactive) | – | – | > 30 µM (inactive) | –
12 | C=CCN(/C=C1/C(=O)O[C@H](COC)[C@@]2(C)C1=C(O)C(=O)C1=C2[C@H](OC(C)=O)C[C@]2(C)C(=O)CC[C@@H]12)CC=C [SONOLISIB] | – | – | > 30 µM (inactive) | – | – | – | – | – | – | –
13 | CNC(=O)c1ccc(Nc2ncc(C(F)(F)F)c(NCc3nccnc3N(C)S(C)(=O)=O)n2)cc1 [DEFACTINIB] | – | > 30 µM (inactive) | > 30 µM (inactive) | > 30 µM (inactive) | > 30 µM (inactive) | – | – | > 30 µM (inactive) | > 30 µM (inactive) | –
14 | C=CC(=O)Nc1cccc(Nc2nc(Nc3ccc(N4CCN(C(C)=O)CC4)cc3OC)ncc2C(F)(F)F)c1 [ROCILETINIB] | – | > 30 µM (inactive) | > 30 µM (inactive) | – | – | – | > 30 µM (inactive) | > 30 µM (inactive) | – | –
15 | CCOc1ccn(-c2ccc(F)cc2)c(=O)c1C(=O)Nc1ccc(Oc2ccnc(N)c2Cl)c(F)c1 [BMS-777607] | – | – | – | > 30 µM (inactive) | – | – | – | > 30 µM (inactive) | – | –
16 | COc1cc2ncnc(Nc3ccc(F)c(Cl)c3)c2cc1NC(=O)/C=C/CN1CCCCC1 [DACOMITINIB ANHYDROUS] | > 30 µM (inactive) | > 30 µM (inactive) | > 30 µM (inactive) | > 30 µM (inactive) | – | – | – | – | – | –
17 | S=C(NCc1ccc2c(c1)OCO2)N1CCN(c2ncnc3c2oc2ccccc23)CC1 [AMUVATINIB] | > 30 µM (inactive) | – | > 30 µM (inactive) | > 30 µM (inactive) | > 30 µM (inactive) | > 30 µM (inactive) | > 30 µM (inactive) | – | – | –
18 | CCc1nc(C(N)=O)c(Nc2ccc(N3CCC(N4CCN(C)CC4)CC3)c(OC)c2)nc1NC1CCOCC1 [GILTERITINIB] | – | – | > 30 µM (inactive) | > 30 µM (inactive) | > 30 µM (inactive) | – | > 30 µM (inactive) | – | > 30 µM (inactive) | –
19 | COc1cc2ncnc(Nc3ccc(O)cc3)c2cc1OC [WHI-P131] | – | – | > 30 µM (inactive) | – | > 30 µM (inactive) | > 30 µM (inactive) | > 30 µM (inactive) | > 30 µM (inactive) | > 30 µM (inactive) | –
20 | C=CC(=O)Nc1cc(Nc2nccc(-c3cn(C)c4ccccc34)n2)c(OC)cc1N(C)CCN(C)C [OSIMERTINIB] | > 30 µM (inactive) | – | > 30 µM (inactive) | > 30 µM (inactive) | > 30 µM (inactive) | – | > 30 µM (inactive) | – | – | –
21 | FC(F)(F)c1ccc(CNc2ccc(Cc3c[nH]c4ncc(Cl)cc34)cn2)cn1 [PEXIDARTINIB] | > 30 µM (inactive) | – | > 30 µM (inactive) | > 30 µM (inactive) | > 30 µM (inactive) | > 30 µM (inactive) | > 30 µM (inactive) | – | > 30 µM (inactive) | –
22 | COc1cc2c(N3CCN(C(=O)Nc4ccc(OC(C)C)cc4)CC3)ncnc2cc1OCCCN1CCCCC1 [TANDUTINIB] | – | – | – | – | – | > 30 µM (inactive) | – | – | – | –
23 | O=S(=O)(c1cccc2cnccc12)N1CCCNCC1 [FASUDIL] | – | > 30 µM (inactive) | > 30 µM (inactive) | > 30 µM (inactive) | – | > 30 µM (inactive) | – | – | > 30 µM (inactive) | –
24 | CCN(CCCOc1ccc2c(Nc3cc(CC(=O)Nc4cccc(F)c4)n[nH]3)ncnc2c1)CCOP(=O)(O)O [BARASERTIB] | > 30 µM (inactive) | – | > 30 µM (inactive) | – | > 30 µM (inactive) | – | – | > 30 µM (inactive) | – | –
25 | CN1CCN(c2nc(C3=C(c4c[nH]c5ccccc45)C(=O)NC3=O)c3ccccc3n2)CC1 [SOTRASTAURIN] | – | > 30 µM (inactive) | > 30 µM (inactive) | > 30 µM (inactive) | – | – | > 30 µM (inactive) | > 30 µM (inactive) | > 30 µM (inactive) | –
26 | c1cc(OCCN2CCCCC2)cc(-c2n[nH]c3ccc(-c4nc[nH]n4)cc23)c1 [CC-401] | > 30 µM (inactive) | > 30 µM (inactive) | > 30 µM (inactive) | > 30 µM (inactive) | > 30 µM (inactive) | – | > 30 µM (inactive) | – | > 30 µM (inactive) | –
27 | O=c1[nH]c([C@@H]2CCCN2)nc2c1oc1ccc(Cl)cc12 | – | – | – | > 30 µM (inactive) | > 30 µM (inactive) | – | – | > 30 µM (inactive) | – | –
28 | COc1ccc(-c2ccc3ncc4c(c3c2)n(-c2ccc(N3CCNCC3)c(C(F)(F)F)c2)c(=O)n4C)cn1 [BGT-226 FREE BASE] | – | > 30 µM (inactive) | > 30 µM (inactive) | > 30 µM (inactive) | > 30 µM (inactive) | > 30 µM (inactive) | – | – | > 30 µM (inactive) | –
29 | CC(C)CC(=O)Nc1[nH]nc2c1CN(C(=O)C1CCN(C)CC1)C2(C)C [PHA-793887] | – | > 30 µM (inactive) | – | > 30 µM (inactive) | > 30 µM (inactive) | > 30 µM (inactive) | – | – | – | –
30 | C[C@]1(O)C[C@@H](c2nc(-c3ccc4ccc(-c5ccccc5)nc4c3)c3c(N)nccn32)C1 [LINSITINIB] | – | – | > 30 µM (inactive) | > 30 µM (inactive) | > 30 µM (inactive) | > 30 µM (inactive) | – | – | > 30 µM (inactive) | –
